Measured values from PMC10510102, “Efficient Ligand Discovery Using Sulfur(VI) Fluoride Reactive Fragments” (ACS Chemical Biology, 2023).

What follows are molecules tested against T1, BCL6 (Homo sapiens, UniProt P41182, C67R/C84N/C8Q) (assay: Identification of site(s) of covalent modification by tandem MS). Conditions: 2 μM BCL6, 100 μM SF, 4 °C, 24 h; trypsin digest LC-MS/MS.
T1 construct: hBCL6-Flag-6H-Avi 3Cmut (5–129) produced as part of the GSK/GenScript collaboration; Flag (C); 6H (His6) (C); Avi (C)
Protocol: The top hits from the SF screen with BCL6 represented two distinct chemotypes: meta-substituted benzamides (2f and 2g) and azetidine aryl ethers (2h and 2i). These were resynthesized and purified for follow-up studies. […] Tyr57 has previously been targeted by a BCL6 inhibitor (14, TMX-2164); however, the targeting of His115 is a novel modification; these residues are located on opposite sides of the binding site of previously reported BCL6 inhibitors (11–14) (see Figure 5b).
7. BCL6 – site of binding studies and iterative screen
7.1. Identification of the site(s) of covalent modification by tandem MS (BCL6)
The (resynthesized and purified) SF hits (2f–i) were plated into a Greiner 384 PP F-bottom plate from a 10 mM source in DMSO. Purified BCL6 diluted from original stock into a buffer made up of HEPES (pH 7.5, 25 mM) and NaCl (50 mM) in distilled MS-grade water (50 µL per well) was subsequently added across the plate. Final concentrations: 2 µM protein; 100 µM SF. The plate was sealed, centrifuged (1 min, 1000 rpm), incubated at 4 °C for 24 h, and 15 µL aliquots were subsequently removed and analyzed by intact protein LC-MS.
The remaining samples (1 μg) were separated by SDS-PAGE to remove excess unbound compound. Gels were stained with colloidal Comassie InstantBlue and bands corresponding to BCL6 were excised, reduced with 10 mM TCEP (65 °C, 30 mins), and alkylated with 10 mM iodoacetamide (r.t., 30 mins, dark). Samples were digested with trypsin (Promega) 1:10 E:S (37 °C, 16 h) in 100 mM ammonium bicarbonate. After removal of the supernatant, peptides were extracted using acetonitrile. Combined supernatants were concentrated in a SpeedVac centrifuge and acidified (0.1% formic acid, 0.05% trifluoroacetic acid) prior to injection into the LC-MS/MS system.
Digested samples were injected on an Easy-nLC 1200 UHPLC system (Thermo Scientific). The nanoLC was interfaced to an Orbitrap Fusion Lumos Mass Spectrometer (Thermo Scientific). Tryptic peptides were loaded on a 2 cm × 75 µm Acclaim PepMap 100 C18 trapping column (Thermo Scientific) and separated on a 25 cm × 75 μm, 2 µm particles, PepMap C18, 2 μm particle column (Thermo Scientific) using a 50 min gradient of 2–38% acetonitrile, 0.2% formic acid and a flow of 300 nL/min. LC-MS/MS based peptide sequencing was performed by data dependent analysis (DDA). Full MS 350–1600 Da at 120,000 resolution, MS AGC target 1e6, MS Maximum IT 50 ms, followed by MS/MS using a 3 sec. cycle time, stepped collision energy mode at 25, 29 and 32 CE%, Isolation window 1.6 m/z, fixed first mass 145 m/z, 15,000 orbitrap resolution, MS/MS AGC target 1e5 and MS/MS Maximum IT 200 ms. Alternatively, samples were analyzed by Parallel Reaction Monitoring (PRM) targeting precursor ions relative to the modified peptides. […]

**Q.** How did the “site of covalent modification” value turn out when CN(C)C(=O)Nc1cccc(CNC(=O)Cc2ccc(S(=O)(=O)F)cc2)c1 [2f] was run?
**A.** Its value is “Tyr57”.

**Q.** How did the “site of covalent modification” value turn out when O=C(Cc1ccc(S(=O)(=O)F)cc1)N1CC(Oc2ccc(F)c(F)c2)C1 [2h] was run?
**A.** The value was “His115”.

**Q.** For NC(=O)c1ccccc1OC1CN(C(=O)Cc2ccc(S(=O)(=O)F)cc2)C1 [2i], which “site of covalent modification” value is on record?
**A.** The value was “His115”.

**Q.** With CC(=O)Nc1cccc(CNC(=O)Cc2ccc(S(=O)(=O)F)cc2)c1 [2g] as the molecule, how does the “site of covalent modification” value read?
**A.** Its value is “Tyr57”.
